{"source": "ChEMBL document CHEMBL3885881", "about": "“DrugMatrix”", "species_on_record": "Rattus norvegicus", "test": "DrugMatrix - Regimen: Daily Repeat", "assay_type": "toxicity, organism-based, Sprague-Dawley", "design": "regimen Daily Repeat, gender Male, age 6-8 weeks", "details": "in vivo; for ALANINE AMINOTRANSFERASE / ALBUMIN / ALKALINE PHOSPHATASE / ASPARTATE AMINOTRANSFERASE / BLOOD UREA NITROGEN / CARBON DIOXIDE / CHLORIDE / CHOLESTEROL / CREATINE PHOSPHOKINASE / CREATININE / GLUCOSE / LACTATE DEHYDROGENASE / LIPASE / PHOSPHORUS / POTASSIUM / SODIUM / TOTAL BILIRUBIN / TOTAL PROTEIN / URIC ACID: tissue Plasma", "key": {"[1]": {"details": "iv, 43 mg/kg, 72 h, tissue Blood, dose level High, time 3 day, vehicle 100 % SALINE"}, "[2]": {"details": "iv, 43 mg/kg, 72 h, dose level High, time 3 day, vehicle 100 % SALINE"}, "[3]": {"details": "iv, 43 mg/kg, 120 h, tissue Blood, dose level High, time 5 day, vehicle 100 % SALINE"}, "[4]": {"details": "iv, 43 mg/kg, 120 h, dose level High, time 5 day, vehicle 100 % SALINE"}, "[5]": {"details": "po, 0 mg/kg, 72 h, tissue Blood, route oral GAVAGE, dose level Control, time 3 day, […]"}, "[6]": {"details": "po, 0 mg/kg, 72 h, route oral GAVAGE, dose level Control, time 3 day, […]"}}}
{"smiles": "CC(CCc1ccc(O)cc1)NCCc1ccc(O)c(O)c1", "note": "(stereo unspecified) [DOBUTAMINE]", "values": [{"measurement": "MONOCYTE", "setting": "[1]", "value": 1, "unit": "%"}, {"measurement": "NEUTROPHIL", "setting": "[1]", "value": 4, "unit": "%"}, {"measurement": "NUCLEATED RED BLOOD CELLS", "setting": "[1]", "value": "0 /100WBC"}, {"measurement": "PLATELET COUNT", "setting": "[1]", "value": 1374.33, "unit": "x10E3/uL"}, {"measurement": "ALANINE AMINOTRANSFERASE", "setting": "[2]", "value": 75.67, "unit": "u/L"}, {"measurement": "ALBUMIN", "setting": "[2]", "value": 4.37, "unit": "G/DL"}, {"measurement": "ALKALINE PHOSPHATASE", "setting": "[2]", "value": 486, "unit": "u/L"}, {"measurement": "ASPARTATE AMINOTRANSFERASE", "setting": "[2]", "value": 91, "unit": "u/L"}, {"measurement": "BLOOD UREA NITROGEN", "setting": "[2]", "value": 18, "unit": "mg/dL"}, {"measurement": "CARBON DIOXIDE", "setting": "[2]", "value": 29.67, "unit": "mmol/L"}, {"measurement": "CHLORIDE", "setting": "[2]", "value": 98.33, "unit": "MEQ/L"}, {"measurement": "CHOLESTEROL", "setting": "[2]", "value": 67.33, "unit": "mg/dL"}, {"measurement": "CREATINE PHOSPHOKINASE", "setting": "[2]", "value": 326, "unit": "u/L"}, {"measurement": "CREATININE", "setting": "[2]", "value": 0.19, "unit": "mg/dL"}, {"measurement": "GLUCOSE", "setting": "[2]", "value": 190, "unit": "mg/dL"}, {"measurement": "LACTATE DEHYDROGENASE", "setting": "[2]", "value": 114.33, "unit": "u/L"}, {"measurement": "LIPASE", "setting": "[2]", "value": 10, "unit": "u/L"}, {"measurement": "PHOSPHORUS", "setting": "[2]", "value": 13.03, "unit": "mg/dL"}, {"measurement": "POTASSIUM", "setting": "[2]", "value": 6.8, "unit": "MEQ/L"}, {"measurement": "SODIUM", "setting": "[2]", "value": 143.43, "unit": "MEQ/L"}, {"measurement": "TOTAL BILIRUBIN", "setting": "[2]", "value": 0.17, "unit": "mg/dL"}, {"measurement": "TOTAL PROTEIN", "setting": "[2]", "value": 6.27, "unit": "G/DL"}, {"measurement": "URIC ACID", "setting": "[2]", "value": 2.17, "unit": "mg/dL"}, {"measurement": "ABSOLUTE BASOPHIL", "setting": "[3]", "value": 0, "unit": "CELLS/uL"}, {"measurement": "ABSOLUTE EOSINOPHIL", "setting": "[3]", "value": 0, "unit": "CELLS/uL"}, {"measurement": "ABSOLUTE LYMPHOCYTE", "setting": "[3]", "value": 14283, "unit": "CELLS/uL"}, {"measurement": "ABSOLUTE MONOCYTE", "setting": "[3]", "value": 137.67, "unit": "CELLS/uL"}, {"measurement": "ABSOLUTE SEGMENTED NEUTROPHIL", "setting": "[3]", "value": 1112.67, "unit": "CELLS/uL"}, {"measurement": "BASOPHIL", "setting": "[3]", "value": 0, "unit": "%"}, {"measurement": "EOSINOPHIL", "setting": "[3]", "value": 0, "unit": "%"}, {"measurement": "ERYTHROCYTE COUNT", "setting": "[3]", "value": 5.95, "unit": "x10E6/uL"}, {"measurement": "HEMATOCRIT", "setting": "[3]", "value": 37.37, "unit": "%"}, {"measurement": "HEMOGLOBIN", "setting": "[3]", "value": 14.87, "unit": "G/DL"}, {"measurement": "LEUKOCYTE COUNT", "setting": "[3]", "value": 15.53, "unit": "x10E3/uL"}, {"measurement": "LYMPHOCYTE", "setting": "[3]", "value": 91.33, "unit": "%"}, {"measurement": "MEAN CORPUSCULAR HEMOGLOBIN", "setting": "[3]", "value": 25.13, "unit": "pg"}, {"measurement": "MEAN CORPUSCULAR HEMOGLOBIN CONCENTRATION", "setting": "[3]", "value": 39.87, "unit": "G/DL"}, {"measurement": "MEAN CORPUSCULAR VOLUME", "setting": "[3]", "value": 63.03, "unit": "fL"}, {"measurement": "MONOCYTE", "setting": "[3]", "value": 1, "unit": "%"}, {"measurement": "NEUTROPHIL", "setting": "[3]", "value": 7.67, "unit": "%"}, {"measurement": "NUCLEATED RED BLOOD CELLS", "setting": "[3]", "value": "0 /100WBC"}, {"measurement": "PLATELET COUNT", "setting": "[3]", "value": 1213.67, "unit": "x10E3/uL"}, {"measurement": "ALANINE AMINOTRANSFERASE", "setting": "[4]", "value": 48, "unit": "u/L"}, {"measurement": "ALBUMIN", "setting": "[4]", "value": 4.33, "unit": "G/DL"}, {"measurement": "ALKALINE PHOSPHATASE", "setting": "[4]", "value": 380, "unit": "u/L"}, {"measurement": "ASPARTATE AMINOTRANSFERASE", "setting": "[4]", "value": 78.67, "unit": "u/L"}, {"measurement": "BLOOD UREA NITROGEN", "setting": "[4]", "value": 19, "unit": "mg/dL"}, {"measurement": "CARBON DIOXIDE", "setting": "[4]", "value": 29, "unit": "mmol/L"}, {"measurement": "CHLORIDE", "setting": "[4]", "value": 100.67, "unit": "MEQ/L"}, {"measurement": "CHOLESTEROL", "setting": "[4]", "value": 74.33, "unit": "mg/dL"}, {"measurement": "CREATINE PHOSPHOKINASE", "setting": "[4]", "value": 277.67, "unit": "u/L"}, {"measurement": "CREATININE", "setting": "[4]", "value": 0.24, "unit": "mg/dL"}, {"measurement": "GLUCOSE", "setting": "[4]", "value": 147, "unit": "mg/dL"}, {"measurement": "LACTATE DEHYDROGENASE", "setting": "[4]", "value": 321.33, "unit": "u/L"}, {"measurement": "LIPASE", "setting": "[4]", "value": 9.33, "unit": "u/L"}, {"measurement": "PHOSPHORUS", "setting": "[4]", "value": 10.77, "unit": "mg/dL"}, {"measurement": "POTASSIUM", "setting": "[4]", "value": 6.44, "unit": "MEQ/L"}, {"measurement": "SODIUM", "setting": "[4]", "value": 143.33, "unit": "MEQ/L"}, {"measurement": "TOTAL BILIRUBIN", "setting": "[4]", "value": 0.2, "unit": "mg/dL"}, {"measurement": "TOTAL PROTEIN", "setting": "[4]", "value": 6.2, "unit": "G/DL"}, {"measurement": "URIC ACID", "setting": "[4]", "value": 1.5, "unit": "mg/dL"}, {"measurement": "ABSOLUTE BASOPHIL", "setting": "[5]", "value": 50, "unit": "cells/µL"}, {"measurement": "ABSOLUTE EOSINOPHIL", "setting": "[5]", "value": 43.3, "unit": "cells/µL"}, {"measurement": "ABSOLUTE LYMPHOCYTE", "setting": "[5]", "value": 9670, "unit": "cells/µL"}, {"measurement": "ABSOLUTE MONOCYTE", "setting": "[5]", "value": 210, "unit": "cells/µL"}, {"measurement": "BASOPHIL", "setting": "[5]", "value": 0.4, "unit": "%"}, {"measurement": "EOSINOPHIL", "setting": "[5]", "value": 0.37, "unit": "%"}, {"measurement": "ERYTHROCYTE COUNT", "setting": "[5]", "value": 6.82, "unit": "x10E6/uL"}, {"measurement": "HEMATOCRIT", "setting": "[5]", "value": 46.77, "unit": "%"}, {"measurement": "HEMOGLOBIN", "setting": "[5]", "value": 14.53, "unit": "G/DL"}, {"measurement": "LEUKOCYTE COUNT", "setting": "[5]", "value": 11.77, "unit": "x10E3/uL"}, {"measurement": "LYMPHOCYTE", "setting": "[5]", "value": 82.1, "unit": "%"}, {"measurement": "MEAN CORPUSCULAR HEMOGLOBIN", "setting": "[5]", "value": 21.33, "unit": "pg"}, {"measurement": "MEAN CORPUSCULAR HEMOGLOBIN CONCENTRATION", "setting": "[5]", "value": 31.13, "unit": "G/DL"}, {"measurement": "MEAN CORPUSCULAR VOLUME", "setting": "[5]", "value": 68.57, "unit": "fL"}, {"measurement": "MONOCYTE", "setting": "[5]", "value": 1.8, "unit": "%"}, {"measurement": "NEUTROPHIL", "setting": "[5]", "value": 14.83, "unit": "%"}, {"measurement": "PLATELET COUNT", "setting": "[5]", "value": 1303.33, "unit": "x10E3/uL"}, {"measurement": "ALANINE AMINOTRANSFERASE", "setting": "[6]", "value": 46.67, "unit": "u/L"}, {"measurement": "ALBUMIN", "setting": "[6]", "value": 4.17, "unit": "G/DL"}, {"measurement": "ALKALINE PHOSPHATASE", "setting": "[6]", "value": 530, "unit": "u/L"}, {"measurement": "ASPARTATE AMINOTRANSFERASE", "setting": "[6]", "value": 81.33, "unit": "u/L"}, {"measurement": "BLOOD UREA NITROGEN", "setting": "[6]", "value": 17.67, "unit": "mg/dL"}, {"measurement": "CARBON DIOXIDE", "setting": "[6]", "value": 41.67, "unit": "mmol/L"}, {"measurement": "CHLORIDE", "setting": "[6]", "value": 102, "unit": "MEQ/L"}, {"measurement": "CHOLESTEROL", "setting": "[6]", "value": 70.33, "unit": "mg/dL"}, {"measurement": "CREATINE PHOSPHOKINASE", "setting": "[6]", "value": 372.67, "unit": "u/L"}, {"measurement": "CREATININE", "setting": "[6]", "value": 0.5, "unit": "mg/dL"}, {"measurement": "GLUCOSE", "setting": "[6]", "value": 184, "unit": "mg/dL"}, {"measurement": "LIPASE", "setting": "[6]", "value": 13.33, "unit": "u/L"}, {"measurement": "PHOSPHORUS", "setting": "[6]", "value": 10.2, "unit": "mg/dL"}]}
